Assay results as given in patent US20210363213A1, “GLUCAGON-GLP-1-GIP TRIPLE AGONIST COMPOUNDS” (priority 2013, published 2021).
Numbered stars: 1 amine (or outer) side, 2 acyl side, 3 side chain; on linkers, the order of the positions; unused ones are H or OH. Square brackets hold non-standard residues; d marks the D form. Side chains are listed from the residue outwards. Peptide text beside a SMILES is read from it. * marks the point of attachment. γGlu = O=C(O)[C@H](CCC(=O)[*:2])N[*:1]; Stearoyl = CCCCCCCCCCCCCCCCCC(=O)*; AEEA = NCCOCCOCC(=O)O; Aib = CC(C)(N)C(=O)O

Tests used:
human GLP-1 R = target: T1, human GLP-1 R (Homo sapiens, UniProt P43220); experiment: Human GLP-1 receptor (GLP-1-R) activity assay, cAMP induction (AlphaScreen) in HEK293 cells; format: cell-based; conditions: Table 2b (most comprehensive data); average EC50; cAMP in HEK293 cells expressing human GLP-1 R; read-out: GLP1 R (EC50 in nM)
T1 construct: expressed in transfected cells
T1 sequence (P43220 24-463): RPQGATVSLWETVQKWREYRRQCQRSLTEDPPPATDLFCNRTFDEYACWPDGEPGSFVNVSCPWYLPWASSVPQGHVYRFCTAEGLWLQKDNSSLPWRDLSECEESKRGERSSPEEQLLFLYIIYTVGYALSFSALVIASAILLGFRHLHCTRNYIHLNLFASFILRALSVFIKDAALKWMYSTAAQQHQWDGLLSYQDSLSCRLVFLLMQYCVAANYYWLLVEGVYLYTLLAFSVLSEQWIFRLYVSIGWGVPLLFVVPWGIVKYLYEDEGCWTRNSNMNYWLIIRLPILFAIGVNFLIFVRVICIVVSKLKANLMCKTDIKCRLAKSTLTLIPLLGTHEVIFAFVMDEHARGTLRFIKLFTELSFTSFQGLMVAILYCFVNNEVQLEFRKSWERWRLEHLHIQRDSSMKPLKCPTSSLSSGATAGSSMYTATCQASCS
Experimental: (§1) Briefly, HEK293 cells expressing the human GIP R, GLP-1 R or GCG R (stable cell lines generated through transfection of the cDNA for human GIP R, GLP-1 R or GCG R and selection of stable clones) were seeded at 30,000 cells/well in 96-well microtiter plates coated with 0.01% poly-L-lysine, and grown for 1 day in culture in 200 μl growth medium (DMEM, 10% FCS, Penicillin (100 IU/ml), Streptomycin (100 μg/ml)). On the day of analysis, growth medium was removed and the cells were washed once with 150 μl Tyrode's buffer (Tyrode's Salts (9.6 g/I), 10 mM HEPES, pH 7.4). […] The Assay buffer was removed and cells are lysed in 80 μl Lysis buffer (0.1% w/v BSA, 5 mM HEPES, 0.3% v/v Tween-20) per well. From each well 10 μl of lysed cells were transferred to a 384-well plate and mixed with 15 μl bead-mix (1 Unit/15 μl anti-cAMP Acceptor Beads, 1 Unit/15 μl Donor Beads, and 1 Unit/15 μl Biotinylated cAMP in Assay Buffer). The plates were mixed and incubated in the dark for an hour at room temperature before measuring using an Envision™ plate reader (Perkin-Elmer).
(§2) The resulting cAMP curves were plotted as absolute cAMP concentrations (nM) over log (test compound concentration) and analyzed using the curve fitting program XLfit.
(§3) Parameters calculated to describe both the potency as well as the agonistic activity of each test compound on the receptors were:
(§4) EC50, a concentration resulting in a half-maximal elevation of cAMP levels, reflecting the potency of the test compound.

human GIP R = target: T2, human GIP R (Homo sapiens, UniProt P48546); experiment: Human GIP receptor (GIP-R) activity assay, cAMP induction (AlphaScreen) in HEK293 cells; format: cell-based
T2 construct: expressed in transfected cells
T2 sequence (P48546 22-466): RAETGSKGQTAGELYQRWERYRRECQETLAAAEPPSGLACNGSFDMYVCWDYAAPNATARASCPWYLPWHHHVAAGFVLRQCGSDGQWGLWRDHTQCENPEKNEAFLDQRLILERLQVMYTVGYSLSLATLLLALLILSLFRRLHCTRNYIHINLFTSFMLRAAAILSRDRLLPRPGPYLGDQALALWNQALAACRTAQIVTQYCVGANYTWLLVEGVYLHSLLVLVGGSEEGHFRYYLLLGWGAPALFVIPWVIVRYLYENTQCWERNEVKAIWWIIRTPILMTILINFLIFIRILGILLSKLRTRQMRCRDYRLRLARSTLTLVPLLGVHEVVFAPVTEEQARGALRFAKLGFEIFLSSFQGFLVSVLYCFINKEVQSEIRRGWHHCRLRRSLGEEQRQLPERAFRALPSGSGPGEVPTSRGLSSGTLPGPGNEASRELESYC
Experimental: as §1, §2, §3, §4

Structure (SMILES)	EC50 (human GLP-1 R)	EC50 (human GIP R)
CCCCCCCCCCCCCCCC(=O)N[C@@H](CCC(=O)NCCCC[C@H](NC(=O)[C@H](CCC(=O)O)NC(=O)[C@H](CC(C)C)NC(=O)[C@H](Cc1ccc(O)cc1)NC(=O)[C@@H](NC(=O)[C@H](CO)NC(=O)[C@H](Cc1ccc(O)cc1)NC(=O)[C@H](CC(=O)O)NC(=O)[C@H](CO)NC(=O)[C@@H](NC(=O)[C@H](Cc1ccccc1)NC(=O)[C@@H](NC(=O)CNC(=O)[C@H](CCC(N)=O)NC(=O)C(C)(C)NC(=O)[C@@H](N)Cc1ccc(O)cc1)[C@@H](C)O)[C@@H](C)O)[C@@H](C)CC)C(=O)N[C@@H](CCCCN)C(=O)N[C@@H](C)C(=O)N[C@@H](C)C(=O)N[C@@H](CCCCN)C(=O)N[C@@H](CCC(=O)O)C(=O)N[C@@H](Cc1ccccc1)C(=O)N[C@H](C(=O)N[C@@H](CCC(=O)O)C(=O)N[C@@H](Cc1c[nH]c2ccccc12)C(=O)N[C@@H](CC(C)C)C(=O)N[C@@H](CC(C)C)C(=O)N[C@@H](CO)C(=O)N[C@@H](C)C(N)=O)C(C)C)C(=O)O [Compound 24] (HELM PEPTIDE1{Y.[Aib].Q.G.T.F.T.S.D.Y.S.I.Y.L.E.K.K.A.A.K.E.F.V.E.W.L.L.S.A.[am]}|PEPTIDE2{[CCCCCCCCCCCCCCCC(=O)[*:2]].[gGlu]}$PEPTIDE1,PEPTIDE2,16:R3-2:R2$$$V2.0)	0.11 nM	
CC(C)C[C@H](NC(=O)[C@H](CC(C)C)NC(=O)[C@H](Cc1c[nH]c2ccccc12)NC(=O)[C@H](CCC(=O)O)NC(=O)[C@@H](NC(=O)[C@H](Cc1ccccc1)NC(=O)[C@H](CCC(=O)O)NC(=O)[C@H](CCCCN)NC(=O)[C@H](CCC(N)=O)NC(=O)[C@H](C)NC(=O)[C@H](CCCCN)NC(=O)[C@H](CCCCN)NC(=O)[C@H](CCC(=O)O)NC(=O)[C@H](CC(C)C)NC(=O)[C@H](Cc1ccc(O)cc1)NC(=O)[C@H](CCCCN)NC(=O)[C@H](CO)NC(=O)[C@H](Cc1ccc(O)cc1)NC(=O)[C@H](CC(=O)O)NC(=O)[C@H](CO)NC(=O)[C@@H](NC(=O)[C@H](Cc1ccccc1)NC(=O)[C@@H](NC(=O)CNC(=O)[C@H](CCC(N)=O)NC(=O)C(C)(C)NC(=O)[C@@H](N)Cc1ccc(O)cc1)[C@@H](C)O)[C@@H](C)O)C(C)C)C(=O)N[C@@H](CO)C(=O)N[C@@H](C)C(N)=O [Compound 22] (HELM PEPTIDE1{Y.[Aib].Q.G.T.F.T.S.D.Y.S.K.Y.L.E.K.K.A.Q.K.E.F.V.E.W.L.L.S.A.[am]}$$$$V2.0)	0.03 nM	
CC[C@H](C)[C@H](NC(=O)[C@H](CO)NC(=O)[C@H](Cc1ccc(O)cc1)NC(=O)[C@H](CC(=O)O)NC(=O)[C@H](CO)NC(=O)[C@@H](NC(=O)[C@H](Cc1ccccc1)NC(=O)[C@@H](NC(=O)CNC(=O)[C@H](CCC(N)=O)NC(=O)C(C)(C)NC(=O)[C@@H](N)Cc1ccc(O)cc1)[C@@H](C)O)[C@@H](C)O)C(=O)N[C@@H](Cc1ccc(O)cc1)C(=O)N[C@@H](CC(C)C)C(=O)N[C@@H](CC(=O)O)C(=O)N[C@@H](CCC(=O)O)C(=O)N[C@@H](CCCCN)C(=O)N[C@@H](C)C(=O)N[C@@H](C)C(=O)N[C@@H](CCCCN)C(=O)N[C@@H](CC(=O)O)C(=O)N[C@@H](Cc1ccccc1)C(=O)N[C@H](C(=O)N[C@@H](CCC(=O)O)C(=O)N[C@@H](Cc1c[nH]c2ccccc12)C(=O)N[C@@H](CC(C)C)C(=O)N[C@@H](CC(C)C)C(=O)N[C@@H](CO)C(=O)N[C@@H](C)C(N)=O)C(C)C [Compound 17] (HELM PEPTIDE1{Y.[Aib].Q.G.T.F.T.S.D.Y.S.I.Y.L.D.E.K.A.A.K.D.F.V.E.W.L.L.S.A.[am]}$$$$V2.0)	0.013 nM	
CCCCCCCCCCCCCCCCCC(=O)N[C@@H](CCC(=O)NCCOCCOCC(=O)NCCOCCOCC(=O)NCCCC[C@H](NC(=O)[C@H](CCCCN)NC(=O)[C@H](CCC(=O)O)NC(=O)[C@H](CC(C)C)NC(=O)[C@H](C)NC(=O)[C@@H](NC(=O)[C@H](CO)NC(=O)[C@H](Cc1ccc(O)cc1)NC(=O)[C@H](CC(=O)O)NC(=O)[C@H](CO)NC(=O)[C@@H](NC(=O)[C@H](Cc1ccccc1)NC(=O)[C@@H](NC(=O)CNC(=O)[C@H](CCC(N)=O)NC(=O)C(C)(C)NC(=O)[C@@H](N)Cc1ccc(O)cc1)[C@@H](C)O)[C@@H](C)O)[C@@H](C)CC)C(=O)N[C@@H](C)C(=O)N[C@@H](CCC(N)=O)C(=O)N[C@@H](CCCNC(=N)N)C(=O)N[C@@H](C)C(=O)N[C@@H](Cc1ccccc1)C(=O)N[C@H](C(=O)N[C@@H](CCC(=O)O)C(=O)N[C@@H](Cc1c[nH]c2ccccc12)C(=O)N[C@@H](CC(C)C)C(=O)N[C@@H](CC(C)C)C(=O)N[C@@H](C)C(=O)N[C@@H](CCC(N)=O)C(=O)N[C@@H](CCCCN)C(N)=O)C(C)C)C(=O)O [Compound 46] (H-Y[Aib]QGTFTSDYSIALEKK([AEEA-AEEA-γGlu-Stearoyl])AQRAFVEWLLAQK-NH2)	0.016 nM	
CC(C)C[C@H](NC(=O)[C@H](C)NC(=O)[C@H](CCCCN)NC(=O)[C@H](CO)NC(=O)[C@H](Cc1ccc(O)cc1)NC(=O)[C@H](CC(=O)O)NC(=O)[C@H](CO)NC(=O)[C@@H](NC(=O)[C@H](Cc1ccccc1)NC(=O)[C@@H](NC(=O)CNC(=O)[C@H](CCC(N)=O)NC(=O)C(C)(C)NC(=O)[C@@H](N)Cc1ccc(O)cc1)[C@@H](C)O)[C@@H](C)O)C(=O)N[C@@H](CC(=O)O)C(=O)N[C@@H](CCC(=O)O)C(=O)N[C@@H](CCCCN)C(=O)N[C@@H](C)C(=O)N[C@@H](C)C(=O)N[C@@H](CCCCN)C(=O)N[C@@H](CCC(=O)O)C(=O)N[C@@H](Cc1ccccc1)C(=O)N[C@H](C(=O)N[C@@H](CCC(=O)O)C(=O)N[C@@H](Cc1c[nH]c2ccccc12)C(=O)N[C@@H](CC(C)C)C(=O)N[C@@H](CC(C)C)C(=O)N[C@@H](CO)C(=O)N[C@@H](C)C(N)=O)C(C)C [Compound 21] (HELM PEPTIDE1{Y.[Aib].Q.G.T.F.T.S.D.Y.S.K.A.L.D.E.K.A.A.K.E.F.V.E.W.L.L.S.A.[am]}$$$$V2.0)	0.015 nM	
CC[C@H](C)[C@H](NC(=O)[C@H](CO)NC(=O)[C@H](Cc1ccc(O)cc1)NC(=O)[C@H](CC(=O)O)NC(=O)[C@H](CO)NC(=O)[C@@H](NC(=O)[C@H](Cc1ccccc1)NC(=O)[C@@H](NC(=O)CNC(=O)[C@H](CCC(N)=O)NC(=O)C(C)(C)NC(=O)[C@@H](N)Cc1ccc(O)cc1)[C@@H](C)O)[C@@H](C)O)C(=O)N[C@@H](Cc1ccc(O)cc1)C(=O)N[C@@H](CC(C)C)C(=O)N[C@@H](CC(=O)O)C(=O)N[C@@H](CO)C(=O)N[C@@H](CCCCN)C(=O)N[C@@H](C)C(=O)N[C@@H](C)C(=O)N[C@@H](CCCCN)C(=O)N[C@@H](CC(=O)O)C(=O)N[C@@H](Cc1ccccc1)C(=O)N[C@H](C(=O)N[C@@H](CCC(=O)O)C(=O)N[C@@H](Cc1c[nH]c2ccccc12)C(=O)N[C@@H](CC(C)C)C(=O)N[C@@H](CC(C)C)C(=O)N[C@@H](CO)C(=O)N[C@@H](C)C(N)=O)C(C)C [Compound 10] (HELM PEPTIDE1{Y.[Aib].Q.G.T.F.T.S.D.Y.S.I.Y.L.D.S.K.A.A.K.D.F.V.E.W.L.L.S.A.[am]}$$$$V2.0)		0.2 nM
